Measured values published in patent US12421276B2 (priority 2016, dated 2025).
Where “and” joins values, the source holds several entries; their conditions need not be identical. Equal values may be shown once. Read-outs that look alike come from different tables or passages of the source.

Key:
[1] = Plasma stability study, human plasma; type: in vitro ADME; conditions: Human plasma, 1 μM, 37° C.
In short: (§1)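 Compounds (1 μM, from 0.3 mM DMSO stock) incubated at 37° C in K2 EDTA plasma, quenched at time points with acetonitrile/methanol/formic acid plus internal standard, and analysed by LC/MS/MS. Disappearance measured relative to 0-min control; t½ derived from elimination rate constant of semi-log % remaining versus time regression.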

[2] = Plasma stability study, rat plasma; type: in vitro ADME; conditions: Rat plasma, 1 μM, 37° C.
In short: as §1

[3] = Metabolic stability in simulated gastric fluid (SGF), pH 1.2, with or without pepsin; type: in vitro ADME; conditions: +Pepsin (0.32%), 5 μM, 37° C.
In short: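 Compound at 5 μM incubated at 37 °C in SGF (34.2 mM NaCl, pH 1.2) without or with 0.32% pepsin; acetonitrile/formic acid quench at time points, LC/MS/MS. Disappearance relative to 0-min; t½ from elimination rate constant of semi-log % remaining vs time.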

[4] = type: in vivo, rat
In short: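 Male SD rats (n=4/group) dosed PO at 13.2 or 14.2 mg/kg (10 mL/kg) and housed in metabolic cages with daily urine collection. EDTA blood sampled predose to 24 h post-dose, centrifuged at 4 °C to plasma, analysed by LC-MS.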

[5] = Rat, PO, 10 mg/kg equiv., n = 4, analyte: Parent (BASE STRUCTURE)
[6] = Rat, PO, 10 mg/kg equiv., n = 4, analyte: Prodrug
[7] = rat, dosed as prodrug, 10 mg/kg equivalent of Base Structure, analyte Parent (Base Structure), Average
[8] = rat, dosed as prodrug, 10 mg/kg equivalent of Base Structure, analyte Parent (Base Structure), Combined (average ± std. dev.)
[9] = rat, dosed as prodrug, 10 mg/kg equivalent of Base Structure, analyte Parent (Base Structure), individual animals, 10 mg/kg
[10] = rat, dosed as prodrug, 10 mg/kg equivalent of Base Structure, analyte Prodrug, Average
[11] = rat, dosed as prodrug, 10 mg/kg equivalent of Base Structure, analyte Prodrug, Combined (average ± std. dev.)
[12] = rat, dosed as prodrug, 10 mg/kg equivalent of Base Structure, analyte Prodrug, individual animals
[13] = rat, dosed as prodrug, 10 mg/kg equivalent of Base Structure, analyte Prodrug, individual animals, 10 mg/kg

In the case of CCCCCC(=O)NC(Cc1ccc(OC(=O)NCCN(C)C)cc1)C(=O)NC(C(=O)NCCCCCC(N)=O)C(C)CC (stereo not shown) [Compound A21], the “Plasma Stability Half-Life” value [1] is reported as 1.22 h, the “Plasma Stability (% Parent Remaining) 0 min” value ([1]; 0 min) is reported as 100% and the “Plasma Stability (% Parent Remaining) 60 min” value ([1]; 60 min) is reported as 59%. The “Plasma Stability (% Parent Remaining) 120 min” value ([1]; 120 min) was 33%, the “Plasma Stability (% Parent Remaining) 240 min” value ([1]; 240 min) was 11% and the “Plasma Stability Half-Life” value [2] was 1.16 h. For the same molecule, the “Plasma Stability (% Parent Remaining) 0 min” value ([2]; 0 min) was 100%, the “Plasma Stability (% Parent Remaining) 60 min” value ([2]; 60 min) was 61% and the “Plasma Stability (% Parent Remaining) 120 min” value ([2]; 120 min) was 34%. For the same molecule, the “Plasma Stability (% Parent Remaining) 240 min” value ([2]; 240 min) was 9%, the “SGF Stability (pH 1.2) Half-Life (min)” value [3] was 265.1 min and the “SGF Stability (pH 1.2) 0 min” value ([3]; 0 min) was 100%. The “SGF Stability (pH 1.2) 60 min” value ([3]; 60 min) was 87%, the “SGF Stability (pH 1.2) 120 min” value ([3]; 120 min) was 74% and the “SGF Stability (pH 1.2) 240 min” value ([3]; 240 min) was 54%. The “AUC0-24” value [4, 5] was 7.4 ± 0.9 ng·h/mL, the “AUC0-inf” value [4, 5] was 47.8 ± 1 ng·h/mL and the “Cmax” value [4, 5] was 0.6 ± 0.1 ng/mL. The “Tmax” value [4, 5] was 0.9 ± 0.8 h, the “half-life” value [4, 5] was 81.7 ± 5.7 h and the “AUC0-24” value [4, 6] was 2.8 ± 1.9 ng·h/mL. For the same molecule, the “AUC0-inf” value [4, 6] was 6.46 ng·h/mL, the “Cmax” value [4, 6] was 1.6 ± 0.5 ng/mL and the “Tmax” value [4, 6] was 0.8 ± 0.4 h. For the same molecule, the “half-life” value [4, 6] was 1.32 h, the “AUC 0-inf_obs” value [4, 7] was 47.78 ng·h/mL and the “AUC 0-t” value [4, 7] was 7.45 ng·h/mL. The “AUMC 0-inf_obs” value [4, 7] was 5777.4305 ng/ml * h^2, the Cl/F_obs [4, 7] was 0.2094 (mg/kg)/(ng/ml)/h and the Cmax [4, 7] was 0.62 ng/mL. The Lambda_z [4, 7] was 0.008507 h⁻¹, the “MRT 0-inf_obs” value [4, 7] was 120.8 h and the Tlag [4, 7] was 0 h. For the same molecule, the Tmax [4, 7] was 0.875 h, the Vz/F_obs [4, 7] was 24.65 (mg/kg)/(ng/ml) and the t1/2 [4, 7] was 81.6756 h. For the same molecule, the “AUC 0-inf_obs” value [4, 8] was 47.8 ± 1 ng·h/mL, the “AUC 0-t” value [4, 8] was 7.4 ± 0.9 ng·h/mL and the “AUMC 0-inf_obs” value [4, 8] was 5777.4 ± 551.6 ng/ml * h^2. The Cl/F_obs [4, 8] was 0.2 ± 0 (mg/kg)/(ng/ml)/h, the Cmax [4, 8] was 0.6 ± 0.1 ng/mL and the Lambda_z [4, 8] was 0 ± 0 h⁻¹. The “MRT 0-inf_obs” value [4, 8] was 120.8 ± 9.1 h, the Tlag [4, 8] was 0 ± 0 h and the Tmax [4, 8] was 0.9 ± 0.8 h. The Vz/F_obs [4, 8] was 24.7 ± 1.2 (mg/kg)/(ng/ml), the t1/2 [4, 8] was 81.7 ± 5.7 h and the Tlag ([4]; rat, dosed as prodrug, 10 mg/kg equivalent of Base Structure, analyte Parent (Base Structure), individual animals) was 0 h. The “AUC 0-inf_obs” value [4, 9] was 48.45 ng·h/mL and 47.1 ng·h/mL, the “AUC 0-t” value [4, 9] was 7.285 ng·h/mL and 8.222 ng·h/mL and 6.27 ng·h/mL and 8.022 ng·h/mL and the “AUMC 0-inf_obs” value [4, 9] was 6167.4557 ng/ml * h^2 and 5387.4053 ng/ml * h^2. For the same molecule, the Cl/F_obs [4, 9] was 0.2064 (mg/kg)/(ng/ml)/h and 0.2123 (mg/kg)/(ng/ml)/h, the Cmax [4, 9] was 0.744 ng/mL and 0.604 ng/mL and 0.555 ng/mL and 0.577 ng/mL and the Lambda_z [4, 9] was 0.00809 h⁻¹ and 0.008925 h⁻¹. For the same molecule, the “MRT 0-inf_obs” value [4, 9] was 127.3 h and 114.4 h, the Tmax [4, 9] was 0.25 h (2×) and 1 h and 2 h and the Vz/F_obs [4, 9] was 25.51 (mg/kg)/(ng/ml) and 23.79 (mg/kg)/(ng/ml). The t1/2 [4, 9] was 85.68 h and 77.67 h, the “AUC 0-inf_obs” value [4, 10] was 6.459 ng·h/mL and the “AUC 0-t” value [4, 10] was 2.846 ng·h/mL. For the same molecule, the “AUMC 0-inf_obs” value [4, 10] was 13.69 ng/ml * h^2, the Cl/F_obs [4, 10] was 1.548 (mg/kg)/(ng/ml)/h and the Cmax [4, 10] was 1.615 ng/mL. For the same molecule, the Lambda_z [4, 10] was 0.5257 h⁻¹, the “MRT 0-inf_obs” value [4, 10] was 2.119 h and the Tlag [4, 10] was 0 h. For the same molecule, the Tmax [4, 10] was 0.8125 h, the Vz/F_obs [4, 10] was 2.945 (mg/kg)/(ng/ml) and the t1/2 [4, 10] was 1.319 h. For the same molecule, the “AUC 0-inf_obs” value [4, 11] was 6.459 ng·h/mL, the “AUC 0-t” value [4, 11] was 2.8 ± 1.9 ng·h/mL and the “AUMC 0-inf_obs” value [4, 11] was 13.69 ng/ml * h^2. For the same molecule, the Cl/F_obs [4, 11] was 1.548 (mg/kg)/(ng/ml)/h, the Cmax [4, 11] was 1.6 ± 0.5 ng/mL and the Lambda_z [4, 11] was 0.5257 h⁻¹. The “MRT 0-inf_obs” value [4, 11] was 2.119 h, the Tlag [4, 11] was 0 ± 0 h and the Tmax [4, 11] was 0.8 ± 0.4 h. For the same molecule, the Vz/F_obs [4, 11] was 2.945 (mg/kg)/(ng/ml), the t1/2 [4, 11] was 1.319 h and the “AUC 0-inf_obs” value [4, 12] was 6.459 ng·h/mL. The “AUMC 0-inf_obs” value [4, 12] was 13.69 ng/ml * h^2, the Cl/F_obs [4, 12] was 1.548 (mg/kg)/(ng/ml)/h and the Lambda_z [4, 12] was 0.5257 h⁻¹. For the same molecule, the “MRT 0-inf_obs” value [4, 12] was 2.119 h, the Tlag [4, 12] was 0 h and the Vz/F_obs [4, 12] was 2.945 (mg/kg)/(ng/ml). The t1/2 [4, 12] was 1.319 h, the “AUC 0-t” value [4, 13] was 5.619 ng·h/mL and 2.381 ng·h/mL and 1.498 ng·h/mL and 1.885 ng·h/mL and the Cmax [4, 13] was 2.18 ng/mL and 1.89 ng/mL and 1.01 ng/mL and 1.38 ng/mL. For the same molecule, the Tmax [4, 13] was 0.25 h and 1 h (3×).
